Data published in US12291519B2, “2-hydroxycycloalkane-1-carbamoyl” (Idorsia Pharmaceuticals Ltd, priority 2019, dated 2025).

Legend:
human Gal-3 (hGal-3) = human Gal-3 (hGal-3) (Homo sapiens (Human), UniProt P17931); test: Competitive binding assay: biotinylated hGal-3 binding to microplate-adsorbed asialofetuin (ASF); details: Activity on hGal-3; binding of biotinylated hGal-3 to ASF-coated plates; mean values
Method in brief: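 Serially diluted compounds competed with biotinylated human Gal-3 for binding to plate-adsorbed asialofetuin over 3 h at 4 °C. Bound Gal-3 was detected with streptavidin-peroxidase (80 ng/mL, 1 h, 4 °C) and ABTS substrate. IC50 values are means of several measurements.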

human Gal-1 (hGal-1) = test: Competitive binding assay: biotinylated hGal-1 binding to microplate-adsorbed asialofetuin (ASF); details: Activity on hGal-1; binding of biotinylated hGal-1 to ASF-coated plates; mean values
Method in brief: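 Inhibition measured as loss of hGal-1 (biotinylated, 300–1000 ng/mL, wild type or Cys→Ser mutant) binding to adsorbed asialofetuin over 3 h at 4 °C. Bound lectin detected with streptavidin-HRP and ABTS (410 nm, 30–45 min); IC50 values averaged across repeat measurements.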

Sequence of human Gal-3 (hGal-3) (P17931 whole entry): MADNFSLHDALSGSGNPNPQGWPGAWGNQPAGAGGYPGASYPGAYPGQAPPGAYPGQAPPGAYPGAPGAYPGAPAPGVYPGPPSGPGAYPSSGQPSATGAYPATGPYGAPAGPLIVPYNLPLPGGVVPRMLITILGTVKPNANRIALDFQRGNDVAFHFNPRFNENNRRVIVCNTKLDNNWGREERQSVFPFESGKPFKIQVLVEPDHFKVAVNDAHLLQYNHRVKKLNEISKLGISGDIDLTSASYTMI
Sequence of human Gal-1 (hGal-1) (P09382 2-135 limits assumed): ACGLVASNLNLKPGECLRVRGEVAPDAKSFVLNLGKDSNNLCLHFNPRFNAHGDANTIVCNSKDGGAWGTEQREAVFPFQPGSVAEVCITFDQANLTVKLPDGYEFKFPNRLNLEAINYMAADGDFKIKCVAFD

Compound `CO[C@@H]1[C@@H](n2cc(-c3cc(F)c(C)c(F)c3)nn2)[C@@H](O)[C@@H](CO)O[C@H]1C(=O)N(c1cc(F)cc(C#N)c1)[C@H]1CCCC[C@@H]1O` [Example 161, (2R,3R,4S,5R,6R)-N-(3-cyano-5-fluorophenyl)-4-(4-(3,5-difluoro-4-methylphenyl)-1H-1,2,3-triazol-1-yl)-5-hydroxy-N-((1S,2S)-2-hydroxycyclohexyl)-6-(hydroxymethyl)-3-methoxytetrahydro-2H-pyran-2-carboxamide] has an IC50 (human Gal-3 (hGal-3)) of 0.025 µM and an IC50 (human Gal-1 (hGal-1)) of 2.17 µM.
`CO[C@@H]1[C@@H](n2cc(-c3ccc(Br)c(F)c3)nn2)[C@@H](O)[C@@H](CO)O[C@H]1C(=O)N(c1cc(Cl)cc(Cl)c1)[C@H]1CCCC[C@@H]1O` [Example 163, (2R,3R,4S,5R,6R)-4-(4-(4-bromo-3-fluorophenyl)-1H-1,2,3-triazol-1-yl)-N-(3,5-dichlorophenyl)-5-hydroxy-N-((1S,2S)-2-hydroxycyclohexyl)-6-(hydroxymethyl)-3-methoxytetrahydro-2H-pyran-2-carboxamide] gave an IC50 (human Gal-3 (hGal-3)) of 0.018 µM and an IC50 (human Gal-1 (hGal-1)) of 1.27 µM.
For `CO[C@@H]1[C@@H](n2cc(-c3cc(F)cc(Br)c3)nn2)[C@@H](O)[C@@H](CO)O[C@H]1C(=O)N(c1cccc(Cl)c1)[C@H]1CCCC[C@@H]1O` [Example 149, (2R,3R,4S,5R,6R)-4-(4-(3-bromo-5-fluorophenyl)-1H-1,2,3-triazol-1-yl)-N-(3-chlorophenyl)-5-hydroxy-N-((1S,2S)-2-hydroxycyclohexyl)-6-(hydroxymethyl)-3-methoxytetrahydro-2H-pyran-2-carboxamide], the IC50 (human Gal-3 (hGal-3)) was 0.085 µM and the IC50 (human Gal-1 (hGal-1)) was 0.707 µM.
Compound `O=C(CO[C@@H]1[C@@H](n2cc(-c3cc(F)c(F)c(F)c3)nn2)[C@@H](O)[C@@H](CO)O[C@H]1C(=O)N(c1cc(Cl)cc(Cl)c1)[C@H]1CCCC[C@@H]1O)N1CCOCC1` [Example 124, (2R,3R,4S,5R,6R)—N-(3,5-dichlorophenyl)-5-hydroxy-N-((1S,2S)-2-hydroxycyclohexyl)-6-(hydroxymethyl)-3-(2-morpholino-2-oxoethoxy)-4-(4-(3,4,5-trifluorophenyl)-1H-1,2,3-triazol-1-yl)tetrahydro-2H-pyran-2-carboxamide] has an IC50 (human Gal-3 (hGal-3)) of 0.012 µM and an IC50 (human Gal-1 (hGal-1)) of 0.226 µM.
Compound `CO[C@@H]1[C@@H](n2cc(-c3cc(F)cc(Cl)c3)nn2)[C@@H](O)[C@@H](CO)O[C@H]1C(=O)N(c1ccc(F)c(F)c1)[C@H]1CCCC[C@@H]1O` [Example 134, (2R,3R,4S,5R,6R)-4-(4-(3-chloro-5-fluorophenyl)-1H-1,2,3-triazol-1-yl)-N-(3,4-difluorophenyl)-5-hydroxy-N-((1S,2S)-2-hydroxycyclohexyl)-6-(hydroxymethyl)-3-methoxytetrahydro-2H-pyran-2-carboxamide] has an IC50 (human Gal-3 (hGal-3)) of 0.063 µM and an IC50 (human Gal-1 (hGal-1)) of 0.761 µM.
With `COc1cc(C#N)cc(N(C(=O)[C@@H]2O[C@H](CO)[C@H](O)[C@H](n3cc(-c4cc(F)cc(Br)c4)nn3)[C@H]2OC)[C@H]2CCCC[C@@H]2O)c1` [Example 150, (2R,3R,4S,5R,6R)-4-(4-(3-bromo-5-fluorophenyl)-1H-1,2,3-triazol-1-yl)-N-(3-cyano-5-methoxyphenyl)-5-hydroxy-N-((1S,2S)-2-hydroxycyclohexyl)-6-(hydroxymethyl)-3-methoxytetrahydro-2H-pyran-2-carboxamide] the IC50 (human Gal-3 (hGal-3)) was 0.062 µM and the IC50 (human Gal-1 (hGal-1)) was 0.671 µM.
Compound `CO[C@@H]1[C@@H](n2cc(-c3cc(F)c(F)c(F)c3)nn2)[C@@H](O)[C@@H](CO)O[C@H]1C(=O)N(c1cccc(Br)c1)[C@H]1CCCC[C@@H]1O` [Example 103, (2R,3R,4S,5R,6R)-N-(3-bromophenyl)-5-hydroxy-N-((1S,2S)-2-hydroxycyclohexyl)-6-(hydroxymethyl)-3-methoxy-4-(4-(3,4,5-trifluorophenyl)-1H-1,2,3-triazol-1-yl)tetrahydro-2H-pyran-2-carboxamide] has an IC50 (human Gal-3 (hGal-3)) of 0.025 µM and an IC50 (human Gal-1 (hGal-1)) of 0.238 µM.
For `CO[C@@H]1[C@@H](n2cc(-c3ccc(F)c4ccccc34)nn2)[C@@H](O)[C@@H](CO)O[C@H]1C(=O)N(c1cc(Cl)cc(Cl)c1)[C@H]1CCCC[C@@H]1O` [Example 192, (2R,3R,4S,5R,6R)-N-(3,5-dichlorophenyl)-4-(4-(4-fluoronaphthalen-1-yl)-1H-1,2,3-triazol-1-yl)-5-hydroxy-N-((1S,2S)-2-hydroxycyclohexyl)-6-(hydroxymethyl)-3-methoxytetrahydro-2H-pyran-2-carboxamide], the IC50 (human Gal-3 (hGal-3)) was 0.021 µM and the IC50 (human Gal-1 (hGal-1)) was 1.14 µM.
With `O=C([C@@H]1O[C@H](CO)[C@H](O)[C@H](n2cc(-c3cc(F)c(F)c(F)c3)nn2)[C@H]1O)N(Cc1ncc(Cl)s1)[C@H]1CCCC[C@@H]1O` [Example 23, (2R,3R,4S,5R,6R)-N-((5-chlorothiazol-2-yl)methyl)-3,5-dihydroxy-N-((1S,2S)-2-hydroxycyclohexyl)-6-(hydroxymethyl)-4-(4-(3,4,5-trifluorophenyl)-1H-1,2,3-triazol-1-yl)tetrahydro-2H-pyran-2-carboxamide] the IC50 (human Gal-3 (hGal-3)) was 0.403 µM and the IC50 (human Gal-1 (hGal-1)) was 22.7 µM.
`CO[C@@H]1[C@@H](n2cc(-c3cc(F)c(F)c(F)c3)nn2)[C@@H](O)[C@@H](CO)O[C@H]1C(=O)N(c1ccccc1)[C@H]1CCCC[C@@H]1O` [Example 100, (2R,3R,4S,5R,6R)-5-hydroxy-N-((1S,2S)-2-hydroxycyclohexyl)-6-(hydroxymethyl)-3-methoxy-N-phenyl-4-(4-(3,4,5-trifluorophenyl)-1H-1,2,3-triazol-1-yl)tetrahydro-2H-pyran-2-carboxamide] showed an IC50 (human Gal-3 (hGal-3)) of 0.073 µM and an IC50 (human Gal-1 (hGal-1)) of 18.6 µM.
`CO[C@@H]1[C@@H](n2cc(-c3cc(F)c(F)c(F)c3)nn2)[C@@H](O)[C@@H](CO)O[C@H]1C(=O)N(Cc1ncccc1C(F)(F)F)[C@H]1CCCC[C@@H]1O` [Example 25, (2R,3R,4S,5R,6R)-5-hydroxy-N-((1S,2S)-2-hydroxycyclohexyl)-6-(hydroxymethyl)-3-methoxy-N-((3-(trifluoromethyl)pyridin-2-yl)methyl)-4-(4-(3,4,5-trifluorophenyl)-1H-1,2,3-triazol-1-yl)tetrahydro-2H-pyran-2-carboxamide] was tested, and the IC50 (human Gal-3 (hGal-3)) was 0.28 µM and the IC50 (human Gal-1 (hGal-1)) was 4.92 µM.
`CO[C@@H]1[C@@H](n2cc(-c3cc(F)c(F)c(F)c3)nn2)[C@@H](O)[C@@H](CO)O[C@H]1C(=O)N(Cc1cccnc1C(F)(F)F)[C@H]1CCCC[C@@H]1O` [Example 26, (2R,3R,4S,5R,6R)-5-hydroxy-N-((1S,2S)-2-hydroxycyclohexyl)-6-(hydroxymethyl)-3-methoxy-N-((2-(trifluoromethyl)pyridin-3-yl)methyl)-4-(4-(3,4,5-trifluorophenyl)-1H-1,2,3-triazol-1-yl)tetrahydro-2H-pyran-2-carboxamide] gave an IC50 (human Gal-3 (hGal-3)) of 0.159 µM and an IC50 (human Gal-1 (hGal-1)) of 0.338 µM.
For `CCn1nccc1CN(C(=O)[C@@H]1O[C@H](CO)[C@H](O)[C@H](n2cc(-c3cc(F)c(F)c(F)c3)nn2)[C@H]1OC)[C@H]1CCCC[C@@H]1O` [Example 44, (2R,3R,4S,5R,6R)-N-((1-ethyl-1H-pyrazol-5-yl)methyl)-5-hydroxy-N-((1S,2S)-2-hydroxycyclohexyl)-6-(hydroxymethyl)-3-methoxy-4-(4-(3,4,5-trifluorophenyl)-1H-1,2,3-triazol-1-yl)tetrahydro-2H-pyran-2-carboxamide], the IC50 (human Gal-3 (hGal-3)) was 0.179 µM and the IC50 (human Gal-1 (hGal-1)) was 0.974 µM.
Work on `CO[C@@H]1[C@@H](n2cc(-c3cc(C)cc(F)c3)nn2)[C@@H](O)[C@@H](CO)O[C@H]1C(=O)N(c1cc(Cl)cc(C#N)c1)[C@H]1CCCC[C@@H]1O` [Example 190, (2R,3R,4S,5R,6R)-N-(3-chloro-5-cyanophenyl)-4-(4-(3-fluoro-5-methylphenyl)-1H-1,2,3-triazol-1-yl)-5-hydroxy-N-((1S,2S)-2-hydroxycyclohexyl)-6-(hydroxymethyl)-3-methoxytetrahydro-2H-pyran-2-carboxamide] yielded an IC50 (human Gal-3 (hGal-3)) of 0.017 µM and an IC50 (human Gal-1 (hGal-1)) of 0.239 µM.
With `CO[C@@H]1[C@@H](n2cc(-c3cc(F)c(F)c(F)c3)nn2)[C@@H](O)[C@@H](CO)O[C@H]1C(=O)N(c1ccc(F)c(F)c1)[C@H]1CCCC[C@@H]1O` [Example 56] the IC50 (human Gal-3 (hGal-3)) was 0.042 µM and the IC50 (human Gal-1 (hGal-1)) was 0.417 µM.
With `O=C([C@@H]1O[C@H](CO)[C@H](O)[C@H](n2cc(-c3cc(F)c(F)c(F)c3)nn2)[C@H]1O)N(Cc1cnsc1)[C@H]1CCCC[C@@H]1O` [Example 18, (2R,3R,4S,5R,6R)-3,5-dihydroxy-N-((1S,2S)-2-hydroxycyclohexyl)-6-(hydroxymethyl)-N-(isothiazol-4-ylmethyl)-4-(4-(3,4,5-trifluorophenyl)-1H-1,2,3-triazol-1-yl)tetrahydro-2H-pyran-2-carboxamide] the IC50 (human Gal-3 (hGal-3)) was 0.179 µM and the IC50 (human Gal-1 (hGal-1)) was 11.6 µM.
In the case of `CO[C@@H]1[C@@H](n2cc(-c3cccc(F)c3)nn2)[C@@H](O)[C@@H](CO)O[C@H]1C(=O)N(c1cc(Cl)cc(C#N)c1)[C@H]1CCCC[C@@H]1O` [Example 74], the IC50 (human Gal-3 (hGal-3)) is reported as 0.044 µM and the IC50 (human Gal-1 (hGal-1)) is reported as 0.161 µM.
Compound `CO[C@@H]1[C@@H](n2cc(-c3cc(F)c(C)c(F)c3)nn2)[C@@H](O)[C@@H](CO)O[C@H]1C(=O)N(c1cc(Cl)cc(C#N)c1)[C@H]1CCCC[C@@H]1O` [Example 159, (2R,3R,4S,5R,6R)-N-(3-chloro-5-cyanophenyl)-4-(4-(3,5-difluoro-4-methylphenyl)-1H-1,2,3-triazol-1-yl)-5-hydroxy-N-((1S,2S)-2-hydroxycyclohexyl)-6-(hydroxymethyl)-3-methoxytetrahydro-2H-pyran-2-carboxamide] has an IC50 (human Gal-3 (hGal-3)) of 0.012 µM and an IC50 (human Gal-1 (hGal-1)) of 0.528 µM.
`O=C([C@@H]1O[C@H](CO)[C@H](O)[C@H](n2cc(-c3cc(F)c(F)c(F)c3)nn2)[C@H]1O)N(Cc1ccccc1Cl)[C@H]1CCCC[C@@H]1O` [Example 6, (2R,3R,4S,5R,6R)-N-(2-chlorobenzyl)-3,5-dihydroxy-N-((1S,2S)-2-hydroxycyclohexyl)-6-(hydroxymethyl)-4-(4-(3,4,5-trifluorophenyl)-1H-1,2,3-triazol-1-yl)tetrahydro-2H-pyran-2-carboxamide] was tested, and the IC50 (human Gal-3 (hGal-3)) was 0.071 µM and the IC50 (human Gal-1 (hGal-1)) was 1.92 µM.
